Experiments:
[1] = Single fragrance migration study in biphasic compositions, GC/MS analysis; assay type: physicochemical; conditions: for Result in % based on GC/MS analysis, Regular EDT aromatics %: Regular EDT with Fragrance oil Giddy 11598/00; for migration between phases when the amount of water is increased: water ~7.4 wt % to ~27.25 wt %, FIG. 1, GC/MS
Text: FIG. 1 has been obtained using GC/MS analytical tool. Depending primary on the log P of fragrances and/or secondary of the chemical families/functions of those fragrances, modification of the polarity will have the effect of pushing the fragrance in one preferred phase of the biphasic composition.
To determine the distribution of first fragrance and second fragrance in the biphasic composition three formulations (regular EDT, biphasic composition with low amount of water in the water-alcohol phase, biphasic composition with high amount of water in the water-alcohol phase) were tested and compared using GC/MS analysis and Expert evaluator.

[2] = colorant; cited from earlier work
[3] = Bi phase formula high amount of water in the bottom phase (total water ~27.24%)
[4] = Bi phase formula low amount of water in the bottom phase (total water ~7.4%)

Row | SMILES | Result in % based on GC/MS analysis, Lower phase aromatics % [1, 3] [%] | Result in % based on GC/MS analysis, Upper phase aromatics % [1, 3] [%] | Result in % based on GC/MS analysis, Lower phase aromatics % [1, 4] [%] | Result in % based on GC/MS analysis, Upper phase aromatics % [1, 4] [%] | Result in % based on GC/MS analysis, Regular EDT aromatics % [1] [%] | migration between phases when the amount of water is increased [1] | solubility (oil-soluble / water-soluble) [2]
1 | CC(C)CC1CC(C)(O)CCO1 (stereo not shown) [florosa] | 5.86 | 3.93 | 5.12 | 1.86 | 3.82 |  | 
2 | CCCCCCC(C=O)=Cc1ccccc1 [hexylcinnamic aid, hexylcinnamic aldehyde] | 0.46 | 1.67 | 1.65 | 1.43 | 1.54 | migrating in the oily phase | 
3 | CCCCCC1C(=O)CCC1CC(=O)OC (stereo not drawn) [hedione trans, hedione] | 26.10 | 11.94 | 18.40 | 6.64 | 13.28 |  | 
4 | C=CC(C)(O)CCC=C(C)CC (mixture of isomers) [ethyl linalol] | 28.40 | 0.83 | 6.86 | 1.11 | 4.39 | stays in the hydro-alcoholic phase | 
5 | CC(=O)OC1CCCCC1C(C)(C)C (single isomer, unassigned) [agrumex major isomer, agrumex] | 0.16 | 0.47 | 0.40 | 0.45 | 0.41 |  | 
6 | C=CC(C)(CCC=C(C)C)OC(C)=O (stereo not shown) [linalyl acetate] | 1.63 | 3.89 | 3.52 | 3.38 | 3.37 |  | 
7 | CC1COCc2cc3c(cc21)C(C)(C)C(C)C3(C)C (stereo not drawn) [galaxolide (main peak), galaxolide] | 1.64 | 22.92 | 15.47 | 26.53 | 20.25 | migrating in the oily phase | 
8 | CCCCCCCCCCCCCC(=O)OC(C)C [Isopropyl Myristate IPM, Isopropyl Myristate] | 0.00 | 13.93 | 4.96 | 23.40 | 13.34 | migrate following the same rules in the oil phase | 
9 | O=C1c2ccccc2C(=O)C1c1ccc2ccccc2n1 [D&C Yellow No. 11] |  |  |  |  |  |  | oil-soluble
10 | CC(CC=O)CCCC(C)(C)O (stereo not shown) [hydroxycitronelial] | 4.13 | 0.12 | 0.88 | 0.06 | 0.53 |  | 
11 | O=C(O)c1nn(-c2ccc(S(=O)(=O)O)cc2)c(O)c1N=Nc1ccc(S(=O)(=O)O)cc1 [FD&C Yellow No. 5] |  |  |  |  |  |  | water-soluble
12 | CC(C=O)Cc1ccc2c(c1)OCO2 (stereo not shown) [helional] | 4.10 | 0.91 | 2.03 | 0.40 | 1.32 |  | 
13 | CC(C=O)Cc1ccc(C(C)(C)C)cc1 (stereo not shown) [lilial] | 2.43 | 4.18 | 4.90 | 2.70 | 3.92 |  | 
